# Source: patent US7385026B1, “Modified ghrelin polypeptides” (priority 1999, dated 2008)
# Square brackets hold non-standard residues; d marks the D form. Peptide text beside a SMILES is read from it. * marks the point of attachment. Octanoyl = CCCCCCCC(=O)*; Aib = CC(C)(N)C(=O)O; Octyl = CCCCCCCC*
# Target: T1, rat GHS-receptor (GHR-R) (Rattus norvegicus, UniProt O08725)
# T1 construct: A full-length cDNA for rat GHR-R was obtained by RT-PCR; expressed in transfected cells
# Experiment: Ca-releasing activity (increase in intracellular calcium) in CHO-GHSR62 cells, FLIPR
# Assay type: cell-based
# Conditions: CHO-GHSR62 cells (CHO cells expressing rat GHS receptor), FLIPR; read-out: Ca-releasing activity EC50
# Outline: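 CHO cells stably expressing full-length rat GHS-R (CHO-GHSR62) were cultured 12–15 h, loaded with 4 μM Fluo4 for 1 h and washed with Hank's BSS containing 20 mM Hepes and 2.5 mM probenecid. Ca-releasing activity of ghrelin peptides, fragments or derivatives was read by FLIPR as the fluorescence change after sample addition.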
# T1 sequence (O08725 whole entry): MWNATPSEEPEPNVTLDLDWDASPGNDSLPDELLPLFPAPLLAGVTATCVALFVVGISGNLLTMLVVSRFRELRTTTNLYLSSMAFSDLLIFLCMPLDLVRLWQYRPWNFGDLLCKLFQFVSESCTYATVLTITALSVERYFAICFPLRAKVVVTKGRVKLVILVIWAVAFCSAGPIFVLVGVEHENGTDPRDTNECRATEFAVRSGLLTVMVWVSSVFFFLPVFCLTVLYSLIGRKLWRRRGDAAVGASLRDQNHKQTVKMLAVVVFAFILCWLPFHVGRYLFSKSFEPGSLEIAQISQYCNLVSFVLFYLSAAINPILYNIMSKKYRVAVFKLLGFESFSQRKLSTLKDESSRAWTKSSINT
row,SMILES,EC50
1,"CCCCCCCC(=O)OC[C@H](NC(=O)[C@H](CO)NC(=O)CN)C(=O)N[C@@H](Cc1ccccc1)C(=O)N[C@@H](CC(C)C)C(=O)N[C@@H](CO)C(=O)N1CCC[C@H]1C(=O)N[C@@H](CCC(=O)O)C(=O)N[C@@H](Cc1c[nH]cn1)C(=O)N[C@@H](CCC(N)=O)C(=O)N[C@@H](CCCCN)C(=O)N[C@@H](C)C(=O)N[C@@H](CCC(N)=O)C(=O)N[C@@H](CCCNC(=N)N)C(=O)N[C@@H](CCCCN)C(=O)N[C@@H](CCC(=O)O)C(=O)N[C@@H](CO)C(=O)N[C@@H](CCCCN)C(=O)N[C@@H](CCCCN)C(=O)N1CCC[C@H]1C(=O)N1CCC[C@H]1C(=O)N[C@@H](C)C(=O)N[C@@H](CCCCN)C(=O)N[C@@H](CC(C)C)C(=O)N[C@@H](CCC(N)=O)C(=O)N1CCC[C@H]1C(=O)N[C@@H](CCCNC(=N)N)C(=O)O [Compound 22, [des Gln^14]-rGhrerin] (H-GSS(Octanoyl)FLSPEHQKAQRKESKKPPAKLQPR-OH; N-terminus and C-terminus assumed)",1.5 nM
2,"CCCCCCCCCCCC(=O)OC[C@H](NC(=O)[C@H](CO)NC(=O)CN)C(=O)N[C@@H](Cc1ccccc1)C(=O)N[C@@H](CC(C)C)C(=O)N[C@@H](CO)C(=O)N1CCC[C@H]1C(=O)N[C@@H](CCC(=O)O)C(=O)N[C@@H](Cc1c[nH]cn1)C(=O)N[C@@H](CCC(N)=O)C(=O)N[C@@H](CCCCN)C(=O)N[C@@H](C)C(=O)N[C@@H](CCC(N)=O)C(=O)N[C@@H](CCC(N)=O)C(=O)N[C@@H](CCCNC(=N)N)C(=O)N[C@@H](CCCCN)C(=O)N[C@@H](CCC(=O)O)C(=O)N[C@@H](CO)C(=O)N[C@@H](CCCCN)C(=O)N[C@@H](CCCCN)C(=O)N1CCC[C@H]1C(=O)N1CCC[C@H]1C(=O)N[C@@H](C)C(=O)N[C@@H](CCCCN)C(=O)N[C@@H](CC(C)C)C(=O)N[C@@H](CCC(N)=O)C(=O)N1CCC[C@H]1C(=O)N[C@@H](CCCNC(=N)N)C(=O)O [Compound 13, [Ser^3(Lauroyl)]-rGhrelin]",2.4 nM
3,"CCCCCCCCCCCCCCCC(=O)OC[C@H](NC(=O)[C@H](CO)NC(=O)CN)C(=O)N[C@@H](Cc1ccccc1)C(=O)N[C@@H](CC(C)C)C(=O)N[C@@H](CO)C(=O)N1CCC[C@H]1C(=O)N[C@@H](CCC(=O)O)C(=O)N[C@@H](Cc1c[nH]cn1)C(=O)N[C@@H](CCC(N)=O)C(=O)N[C@@H](CCCCN)C(=O)N[C@@H](C)C(=O)N[C@@H](CCC(N)=O)C(=O)N[C@@H](CCC(N)=O)C(=O)N[C@@H](CCCNC(=N)N)C(=O)N[C@@H](CCCCN)C(=O)N[C@@H](CCC(=O)O)C(=O)N[C@@H](CO)C(=O)N[C@@H](CCCCN)C(=O)N[C@@H](CCCCN)C(=O)N1CCC[C@H]1C(=O)N1CCC[C@H]1C(=O)N[C@@H](C)C(=O)N[C@@H](CCCCN)C(=O)N[C@@H](CC(C)C)C(=O)N[C@@H](CCC(N)=O)C(=O)N1CCC[C@H]1C(=O)N[C@@H](CCCNC(=N)N)C(=O)O [Compound 14, [Ser^3(Palmitoyl)]-rGhrelin]",6.5 nM
4,"CCCCCCCC(=O)OC[C@H](NC(=O)[C@H](CO)NC(=O)CN)C(=O)N[C@H](Cc1ccccc1)C(=O)N[C@@H](CCCCN)C(N)=O [Compound 39, [^DPhe^4, Lys^5]-Ghrelin (1-5)-amide] (H-GSS(Octanoyl)[dF]K-NH2)",1700 nM
5,"CCCCCCCC(=O)OC[C@H](NC(=O)[C@H](CO)NC(=O)CN)C(=O)N[C@@H](Cc1ccccc1)C(=O)N[C@@H](CC(C)C)C(=O)N[C@@H](CO)C(=O)N1CCC[C@H]1C(=O)N[C@@H](CCCCN)C(N)=O [Compound 35, [Lys^8]-Ghrelin (1-8)-amide] (H-GSS(Octanoyl)FLSPK-NH2)",1.1 nM
6,"CCCCCCCC(=O)OC[C@H](NC(=O)[C@H](CO)NC(=O)CN)C(=O)N[C@@H](Cc1ccccc1)C(=O)N[C@@H](CC(C)C)C(=O)N[C@@H](CO)C(=O)N1CCC[C@H]1C(=O)N[C@@H](CCCNC(=N)N)C(N)=O [Compound 36, [Arg^8]-Ghrelin (1-8)-amide] (H-GSS(Octanoyl)FLSPR-NH2)",1.1 nM

# Next, values leading:
row,EC50,SMILES
1,38 nM,"CCCCCCCCOC[C@@H](NC(=O)[C@H](Cc1c[nH]cn1)NC(=O)C(C)(C)N)C(=O)N[C@H](Cc1ccccc1)C(=O)N[C@@H](CCCCN)C(N)=O [Compound 79, [Aib^1, His^2, ^DSer^3(Octyl), ^DPhe^4, Lys^5]-Ghrelin (1-5)-amide] (H-[Aib]H[dS](Octyl)[dF]K-NH2)"
2,11 nM,"CCCCCCCNC(=O)C[C@H](NC(=O)[C@H](CO)NC(=O)CN)C(=O)N[C@@H](Cc1ccccc1)C(=O)N[C@@H](CC(C)C)C(=O)N[C@@H](CO)C(=O)N1CCC[C@H]1C(=O)N[C@@H](CCC(=O)O)C(=O)N[C@@H](Cc1c[nH]cn1)C(=O)N[C@@H](CCC(N)=O)C(=O)N[C@@H](CCCNC(=N)N)C(=O)N[C@H](C(=O)N[C@@H](CCC(N)=O)C(=O)N[C@@H](CCC(N)=O)C(=O)N[C@@H](CCCNC(=N)N)C(=O)N[C@@H](CCCCN)C(=O)N[C@@H](CCC(=O)O)C(=O)N[C@@H](CO)C(=O)N[C@@H](CCCCN)C(=O)N[C@@H](CCCCN)C(=O)N1CCC[C@H]1C(=O)N1CCC[C@H]1C(=O)N[C@@H](C)C(=O)N[C@@H](CCCCN)C(=O)N[C@@H](CC(C)C)C(=O)N[C@@H](CCC(N)=O)C(=O)N1CCC[C@H]1C(=O)N[C@@H](CCCNC(=N)N)C(=O)O)C(C)C [Compound 55, [Asp^3(NH-Heptyl)]-hGhrelin]"
3,> 10000 nM,"CCCCCCCC(=O)OC[C@H](NC(=O)[C@H](CO)NC(=O)CNC(C)=O)C(=O)N[C@@H](Cc1ccccc1)C(=O)N[C@@H](CC(C)C)C(=O)N[C@@H](CO)C(=O)N1CCC[C@H]1C(=O)N[C@@H](CCC(=O)O)C(=O)N[C@@H](Cc1c[nH]cn1)C(=O)N[C@@H](CCC(N)=O)C(=O)O [Compound 41, [N-Acetyl]-Ghrelin (1-10)]"
4,19 nM,"CC(C)C[C@H](NC(=O)[C@H](CCCCN)NC(=O)[C@H](C)NC(=O)[C@@H]1CCCN1C(=O)[C@@H]1CCCN1C(=O)[C@H](CCCCN)NC(=O)[C@H](CCCCN)NC(=O)[C@H](CO)NC(=O)[C@H](CCC(=O)O)NC(=O)[C@H](CCCCN)NC(=O)[C@H](CCCNC(=N)N)NC(=O)[C@H](CCC(N)=O)NC(=O)[C@H](CCC(N)=O)NC(=O)[C@@H](NC(=O)[C@H](CCCNC(=N)N)NC(=O)[C@H](CCC(N)=O)NC(=O)[C@H](Cc1c[nH]cn1)NC(=O)[C@H](CCC(=O)O)NC(=O)[C@@H]1CCCN1C(=O)[C@H](CO)NC(=O)[C@H](CC(C)C)NC(=O)[C@H](Cc1ccccc1)NC(=O)[C@H](CC1CCCCC1)NC(=O)[C@H](CO)NC(=O)CN)C(C)C)C(=O)N[C@@H](CCC(N)=O)C(=O)N1CCC[C@H]1C(=O)N[C@@H](CCCNC(=N)N)C(=O)O [Compound 64, [Cha^3]-hGhrelin]"
5,4.4 nM,"CC(C)CCC(=O)OC[C@H](NC(=O)[C@H](CO)NC(=O)CN)C(=O)N[C@@H](Cc1ccccc1)C(=O)N[C@@H](CC(C)C)C(=O)N[C@@H](CO)C(=O)N1CCC[C@H]1C(=O)N[C@@H](CCC(=O)O)C(=O)N[C@@H](Cc1c[nH]cn1)C(=O)N[C@@H](CCC(N)=O)C(=O)N[C@@H](CCCNC(=N)N)C(=O)N[C@H](C(=O)N[C@@H](CCC(N)=O)C(=O)N[C@@H](CCC(N)=O)C(=O)N[C@@H](CCCNC(=N)N)C(=O)N[C@@H](CCCCN)C(=O)N[C@@H](CCC(=O)O)C(=O)N[C@@H](CO)C(=O)N[C@@H](CCCCN)C(=O)N[C@@H](CCCCN)C(=O)N1CCC[C@H]1C(=O)N1CCC[C@H]1C(=O)N[C@@H](C)C(=O)N[C@@H](CCCCN)C(=O)N[C@@H](CC(C)C)C(=O)N[C@@H](CCC(N)=O)C(=O)N1CCC[C@H]1C(=O)N[C@@H](CCCNC(=N)N)C(=O)O)C(C)C [Compound 69, [Ser^3(4-Methylpentanoyl)]-hGhrelin]"
6,120 nM,"CCCCCCCC(=O)OC[C@H](NC(=O)[C@H](CO)NC(=O)CNC(=O)[C@@H](N)Cc1ccc(O)cc1)C(=O)N[C@@H](Cc1ccccc1)C(=O)N[C@@H](CC(C)C)C(=O)N[C@@H](CO)C(=O)N1CCC[C@H]1C(=O)N[C@@H](CCC(=O)O)C(=O)N[C@@H](Cc1c[nH]cn1)C(=O)N[C@@H](CCC(N)=O)C(=O)N[C@@H](CCCCN)C(=O)N[C@@H](C)C(=O)N[C@@H](CCC(N)=O)C(=O)N[C@@H](CCC(N)=O)C(=O)N[C@@H](CCCNC(=N)N)C(=O)N[C@@H](CCCCN)C(=O)N[C@@H](CCC(=O)O)C(=O)N[C@@H](CO)C(=O)N[C@@H](CCCCN)C(=O)N[C@@H](CCCCN)C(=O)N1CCC[C@H]1C(=O)N1CCC[C@H]1C(=O)N[C@@H](C)C(=O)N[C@@H](CCCCN)C(=O)N[C@@H](CC(C)C)C(=O)N[C@@H](CCC(N)=O)C(=O)N1CCC[C@H]1C(=O)N[C@@H](CCCNC(=N)N)C(=O)O [Compound 42, [N-Tyr]-rGhrelin]"
7,120 nM,"CC(C)C[C@H](NC(=O)[C@H](CCCCN)NC(=O)[C@H](C)NC(=O)[C@@H]1CCCN1C(=O)[C@@H]1CCCN1C(=O)[C@H](CCCCN)NC(=O)[C@H](CCCCN)NC(=O)[C@H](CO)NC(=O)[C@H](CCC(=O)O)NC(=O)[C@H](CCCCN)NC(=O)[C@H](CCCNC(=N)N)NC(=O)[C@H](CCC(N)=O)NC(=O)[C@H](CCC(N)=O)NC(=O)[C@@H](NC(=O)[C@H](CCCNC(=N)N)NC(=O)[C@H](CCC(N)=O)NC(=O)[C@H](Cc1c[nH]cn1)NC(=O)[C@H](CCC(=O)O)NC(=O)[C@@H]1CCCN1C(=O)[C@H](CO)NC(=O)[C@H](CC(C)C)NC(=O)[C@H](Cc1ccccc1)NC(=O)[C@H](CCCCN)NC(=O)[C@H](CO)NC(=O)CN)C(C)C)C(=O)N[C@@H](CCC(N)=O)C(=O)N1CCC[C@H]1C(=O)N[C@@H](CCCNC(=N)N)C(=O)O [Compound 72, [Lys^3]-hGhrelin]"

# Same assay, conditions: CHO-GHSR62 cells; listed as Ghrelin-27
row,SMILES,Ca-releasing activity (in words)
1,"CCCCCCCC(=O)OC[C@H](NC(=O)[C@H](CO)NC(=O)CN)C(=O)N[C@@H](Cc1ccccc1)C(=O)N[C@@H](CC(C)C)C(=O)N[C@@H](CO)C(=O)N1CCC[C@H]1C(=O)N[C@@H](CCC(=O)O)C(=O)N[C@@H](Cc1c[nH]cn1)C(=O)N[C@@H](CCC(N)=O)C(=O)N[C@@H](CCCCN)C(=O)N[C@@H](C)C(=O)N[C@@H](CCC(N)=O)C(=O)N[C@@H](CCCNC(=N)N)C(=O)N[C@@H](CCCCN)C(=O)N[C@@H](CCC(=O)O)C(=O)N[C@@H](CO)C(=O)N[C@@H](CCCCN)C(=O)N[C@@H](CCCCN)C(=O)N1CCC[C@H]1C(=O)N1CCC[C@H]1C(=O)N[C@@H](C)C(=O)N[C@@H](CCCCN)C(=O)N[C@@H](CC(C)C)C(=O)N[C@@H](CCC(N)=O)C(=O)N1CCC[C@H]1C(=O)N[C@@H](CCCNC(=N)N)C(=O)O [Compound 22, [des Gln^14]-rGhrerin] (H-GSS(Octanoyl)FLSPEHQKAQRKESKKPPAKLQPR-OH; N-terminus and C-terminus assumed)",completely the same Ca-releasing activity
